Measurements from US10646594B2, “Deuterated metabolic water precursor for detecting and treating diseased tissue” (CASE WESTERN RESERVE UNIVERSITY, priority 2009, dated 2020).

Key:
[1] = tested on: malignant cells; conditions: Kushner et al. 1999; cited from earlier work
[2] = DMR measurement of deuterated glucose metabolism in Tenebrio molitor larvae; format: in vivo; conditions: starved larvae fed bran wetted with aqueous deuterated glucose, 2H spectrum
Description: (§1) DMR measurements (AQ 0.2s; TR 0.3s; NS 128; LB 30; 38s/spectrum) were performed at 9.4 T on a wide bore (89 mm) Bruker Avance microimager equipped with a multinuclear probe. A set of experiments was performed on three male mice (C57/BL6) and another set, on Tenebrio molitor larvae. Mouse 1 (25 g), was injected iv with 8.9 mg deuterated glucose (ISOTEC) dissolved in 0.4 ml saline solution; it was sacrificed after 1.5 hr and, after dissection, its whole body (except fur and skin) was placed in a 20 mm NMR tube for running the DMR spectrum (shown in FIG. 4, upper trace). Mouse 2, (32 g) injected ip with the same amount of glucose-d7 as mouse 1 was sacrificed after 3.5 hr, and yielded the spectrum seen in the same FIG. 4, second trace. Tenebrio molitor larvae were starved for several days, then placed in a 20 mm NMR tube together with food consisting of 0.4 g bran wetted with an aqueous solution of deuterated glucose.
In our approach, the excellent tracer quality of deuterium (natural abundance 0.015%) is combined with the fact that only two well separated peaks are to be measured; that of nascent metabolic water, and that of the aliphatic chain of fatty acids. Thus, in spite of their large line widths (100-230 Hz) due to the electric quadrupole moment and unfavorable correlation times, the spectra can be interpreted in a quantitative manner. […]

[3] = DMR measurement of deuterated glucose metabolism in mice; format: in vivo, mice (C57/BL6); conditions: mice injected iv or ip with 8.9 mg deuterated glucose, whole-body DMR spectrum
Description: as §1

Structure (SMILES) | toxicity to malignant cells compared with normal animal cells [1] | incorporation of D-label into fat [2] | metabolism of glucose into deuterated water ([2]; end of the experiment) | consumption of deuterated glucose ([3]; sacrificed after 1.5 hr or 3.5 hr) | metabolic fate of deuterated glucose (metabolic water / fat) [3]
[2H]O[2H] [D2O] | more toxic to malignant cells than normal animal cells | – | – | – | –
[2H]C1(O)O[C@]([2H])(C([2H])([2H])O)[C@@]([2H])(O)[C@]([2H])(O)[C@@]1([2H])O (stereo partly drawn) [deuterated glucose, D-7 Glucose[1,2,3,4,5,6,6-2H7]] | – | did not incorporate a visible amount of D-label into fat | all glucose was metabolized into deuterated water | all deuterated glucose was consumed by the mice | most of it provided protons for the formation of metabolic water, part of it was metabolized into fat
